{"source": "patent US7544468B2", "about": "“Simultaneous collection of DNA and non-nucleic analytes” (Orasure Technologies, Inc., priority 1997, dated 2009)", "key": {"[1]": {"test": "Single dose study: intravenous cocaine, detection in oral fluid and urine by STC assay and GC/MS", "type": "in vivo, human", "experimental": "A total of 10 volunteers received 10 or 25 mg of intravenous cocaine in a controlled environment. Oral fluid and urine specimens were collected over 0-130 hours after dose. Oral fluid specimens (400 µL) were added to the collection pad and diluted into the EPISCREEN™ Control Matrix. Samples were then tested using the STC assay and GC/MS. The results were platted over time for each patient. The oral fluid and urine results were compared using similar points on the curve. For all volunteers, regardless of the dose, the cocaine concentrations in oral fluid were detectable 5 minutes after dosing. For the subject who received 10 mg, oral fluid cocaine levels were no longer detectable after 25 minutes. For the remaining nine subjects who received 25 mg intravenous cocaine, drug levels in oral fluids were detectable after dosing for up to 3-6 hours. The length of time detectable drug concentrations were present in urine varied greatly. […] This variability could be attributed to a number of factors, including the volume of urine collected and the sensitivity of the cutoff used. In general, however, positive results were obtained in the subjects for up to 58 hours after dosing."}, "[2]": {"conditions": "cited from earlier work"}, "[3]": {"conditions": "cited from earlier work", "remark": "listed apart in the source"}}, "note": "Where a name gives a salt, the structure may show the parent alone. Read-outs that look alike come from different tables or passages of the source."}
{"smiles": "COC(=O)[C@H]1[C@@H](OC(=O)c2ccccc2)C[C@@H]2CC[C@H]1N2C", "note": "[Cocaine, benzyolmethylecgonine]", "values": [{"measurement": "time after dosing at which cocaine concentrations in oral fluid were detectable", "setting": "[1]; all volunteers, 10 or 25 mg intravenous", "value": 5, "unit": "min"}, {"measurement": "time drug levels in oral fluids were detectable after dosing", "setting": "[1]; nine subjects, 25 mg intravenous", "value": "3 to 6", "unit": "h"}, {"measurement": "time after which oral fluid cocaine levels were no longer detectable", "setting": "[1]; subject who received 10 mg intravenous", "value": 25, "unit": "min"}]}
{"smiles": "CCCCCc1cc(O)c2c(c1)OC(C)(C)[C@@H]1CCC(C)=C[C@@H]21", "note": "[THC, Tetrahydrocannabinol]", "values": [{"measurement": "persistence in saliva", "setting": "[2]; saliva, after use, depends on pH and rate of saliva flow", "value": "≤ 14", "unit": "h"}, {"measurement": "persistence in urine", "setting": "[2]; urine, depending upon the frequency of use", "value": "up to 30 days"}]}
{"smiles": "CN[C@@H](C)Cc1ccccc1", "note": "[Methamphetamine, methylamphetamine hydrochloride]", "values": [{"measurement": "found unchanged in urine", "setting": "[3]; acid urine", "value": "up to 76%"}, {"measurement": "found unchanged in urine", "setting": "[3]; alkaline urine", "value": 2, "unit": "%"}, {"measurement": "excreted in the urine unchanged", "setting": "[3]; normal conditions", "value": "up to 43%"}, {"measurement": "time detected in oral fluid", "setting": "[3]; oral fluid, depends on dose and rate of saliva flow", "value": "≤ 50", "unit": "h"}, {"measurement": "time detection in urine is successful following use", "setting": "[3]; urine", "value": "24 to 48", "unit": "h"}]}
